Broadly, the IC50 is the concentration that inhibits the measured activity by half.

T1 sequence (P14902 whole entry): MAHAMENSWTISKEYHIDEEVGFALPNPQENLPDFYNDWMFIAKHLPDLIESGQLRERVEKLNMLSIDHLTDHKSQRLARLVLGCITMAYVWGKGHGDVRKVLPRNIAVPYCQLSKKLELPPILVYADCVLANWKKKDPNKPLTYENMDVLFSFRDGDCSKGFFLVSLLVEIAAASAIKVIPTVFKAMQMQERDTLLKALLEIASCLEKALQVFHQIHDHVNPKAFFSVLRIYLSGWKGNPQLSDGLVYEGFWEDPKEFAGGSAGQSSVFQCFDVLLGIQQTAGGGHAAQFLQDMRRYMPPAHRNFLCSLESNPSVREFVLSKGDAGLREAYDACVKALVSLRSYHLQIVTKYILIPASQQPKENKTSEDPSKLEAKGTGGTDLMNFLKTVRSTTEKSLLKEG

The experiment concerns the target T1, Indoleamine 2,3-Dioxygenase (IDO1) in SKOV-3 cells (Homo sapiens, UniProt P14902).
T1 construct: endogenous in cells; host or cells: SKOV-3 (ATCC HTB-77), stimulated with 50 ng/ml interferon gamma
The experiment in a line: SKOV-3 cellular indoleamine 2,3-dioxygenase assay. Particulars: 50 ng/ml Interferon gamma, 100 μM L-Tryptophan, 24 hours, N-Formylkynurenin fluorescence, read-out: cell based activity (IC50). Here is the method:
SKOV-3 Cellular Indoleamine 2,3-Dioxygenase Assay
SKOV-3 cells were obtained from the American Type Culture Collection (ATCC® HTB-77™) and maintained in McCoy's medium (Pan Biotech) supplemented with 10% fetal bovine serum and 1% Penicilin/Streptomycin. Cells were kept at 37° C. in a humidified incubator with 5% CO2. For assay preparation, cells were seeded at a density of 2*10^5/m into black clear bottom 96 well plates in 100 μl medium/well supplemented with 50 ng/ml Interferon gamma (eBioscience, Thermo Fisher Scientific). After cells fully adhered to the plate, dilution series of compounds were added in medium containing additional L-Tryptophan to a final L-Tryptophan concentration of 100 μM. The cells were incubated for 24 hours. Detection of produced N-Formylkynurenin was performed by addition of 3-Methylpiperidine to a final concentration of 200 mM. The plates were sealed and heated to 65° C. for 20 minutes in a water bath. After cooling the fluorescence of each well was recorded with a Victor™ X4 (PerkinElmer) plate reader at an emission wavelength of 535 nm and excitation at 405 nm (Tomek et al.; Anal Bioanal Chem (2013) 405:2515-2524., Tomek et al.; Biochim Biophys Acta. 2015 September; 1850(9):1772-80).
Turning to `O=C(N[C@H]1CCc2ccccc2C1)C(=O)N1CCC(c2ccnc3ccc(F)cc23)CC1` [Example 5, (S)-2-(4-(6-Fluoroquinolin-4-yl)piperidin-1-yl)-2-oxo-N-(1,2,3,4-tetrahydro-naphthalen-2-yl)acetamide], the IC50 lay within 100 to 1000 nM.
With `O=C(Nc1ccc(Cl)cn1)C(=O)N1CCC(c2cccc3ccccc23)CC1` [Example 6, N-(5-Chloropyridin-2-yl)-2-(4-(naphthalen-1-yl)piperidin-1-yl)-2-oxoacetamide] the figure was 100 to 1000 nM.
With `O=C(Nc1ccc(CCCl)cc1)C(=O)N1CCC(c2ccnc3ccc(F)cc23)CC1` [Example 7, N-(4-(2-Chloroethyl)phenyl)-2-(4-(6-fluoroquinolin-4-yl)piperidin-1-yl)-2-oxoacetamide] the figure was less than 100 nM.
With `CC(NC(=O)C(=O)N1CCC(c2ccnc3ccc(F)cc23)CC1)c1ccccc1` (stereo not drawn) [Example 8, 2-(4-(6-Fluoroquinolin-4-yl)piperidin-1-yl)-2-oxo-N-(1-phenylethyl)acetamide] the figure was more than 1000 nM.
On to `O=C(Nc1ccc(Cl)cn1)C(=O)N1CCC(c2ccc(C(=O)O)c3ccccc23)CC1` [Example 9, 4-(1-(2-((5-Chloropyridin-2-yl)amino)-2-oxoacetyl)piperidin-4-yl)-1-naphthoic Acid], for which the IC50 was more than 1000 nM.
To `O=C(Nc1ccc(Cl)cn1)C(=O)N1CCC2(CCc3ccccc32)CC1` [Example 100] belongs less than 100 nM; to `O=C(Nc1ccc(Cl)cc1)C(=O)N1CCC2(CC1)COc1cc(C(F)F)ccc12` [Example 101, N-(4-Chlorophenyl)-2-(6-(difluoromethyl)-2H-spiro[benzofuran-3,4′-piperidin]-1′-yl)-2-oxoacetamide], less than 100 nM.
To `O=C(Nc1ccc(Cl)cc1)C(=O)N1CCCC2(CC1)COc1cc(C(F)(F)F)ccc12` (stereo not drawn) [Example 102, N-(4-Chlorophenyl)-2-oxo-2-(6′-(trifluoromethyl)-2′H-spiro[azepane-4,3′-benzofuran]-1-yl)acetamide] belongs 100 to 1000 nM.
Regarding `O=C(NC1Cc2ccc(F)cc21)C(=O)N1CCC2(CC1)COc1cc(C(F)(F)F)ccc12` (stereo not drawn) [Example 103, N-(4-Fluorobicyclo[4.2.0]octa-1(6),2,4-trien-7-yl)-2-oxo-2-(6-(trifluoromethyl)-2H-spiro[benzofuran-3,4′-piperidin]-1′-yl)acetamide], the IC50 was more than 1000 nM.

These data come from patent publication US20200352931A1, “OXALAMIDES AS MODULATORS OF INDOLEAMINE 2,3-DIOXYGENASE” (PHENEX DISCOVERY VERWALTUNGS-GMBH, priority 2017, published 2020).
